Source: US20130197047A1, “OPHTHALMIC COMPOSITIONS OF PARASYMPATHETIC STIMULANTS AND ANTI-INFLAMMATORIES FOR USE IN THE TREATMENT OF PRESBYOPIA” (priority 2006, published 2013)
Counter-ions that a name gives are not always drawn.

Legend:
[1] = test system: presbyopic patient; details: does not solve blurred distant vision; cited from earlier work
[2] = test system: Presbiopic patients; assay: Topical eye-drop treatment of presbyopic patients (100 patients, 4 groups), follow-up of near and distant visual sharpness and tolerance; assay type: in vivo, human; details: of 100 patients treated
Method: 100 Presbiopic patients of both sexes, of age 40 to 65, were treated with the compositions of the invention. Exclusion criteria concerned patients with myopia or astigmatism higher than 1 dioptre, and hypermetropia greater than 3 dioptres as well as those with corneal, lens and vitreous opacitis, and chronic general pathologies. 4 Different groups of presbyopic population were differentiated: Group 1: Pure presbyopics Group 2: Presbyopics with hypermetropia Group 3: Presbyopics with phorias Group 4: Presbyopics with glaucoma Patients of all groups were treated with eye drops of different concentrations and combinations of medicaments acting on the ocular sympathetic innervation. Pure presbyopic patients (Group 1) were topically treated with 1% pilocarpine hydrochloride+0.5% diclofenac sodium, at 6 hr intervals during the daily hours; treatment was suspended at night. Presbyopics with hypermetropia (Group 2) were topically treated with 2% pilocarpine hydrochloride+0.5% diclofenac sodium, at 6 hr intervals during the daily hours. […] All patients were monitored after one week treatment and monthly during the first three months to evaluate dosage and side-effects. […]

SMILES: CNC(=O)Oc1ccc2c(c1)[C@]1(C)CCN(C)[C@@H]1N2C [physostygmine]
- result of topical application to presbyopic patient [1]: poor results

SMILES: CC[C@@H]1C(=O)OC[C@@H]1Cc1cncn1C [pilocarpine hydrochloride]
- patients showed intolerance (diarrhoea and dyspepsia) [2]: 2 patients
